Source: patent publication US9045505B2, “Nitric oxide donors” (University of Otago, priority 2006, dated 2015)

Tested on: rat liver mitochondria
Test: Membrane potential-dependent uptake into isolated mitochondria (TPP-selective electrode)
Assay type: biochemical
Conditions: energized with 10 mM succinate, reversed by FCCP
Procedure: FIG. 8 is a trace showing the uptake of MitoSNAP and MitoNAP by energized mitochondria measured using an ion-selective electrode. For (a) and (b) mitochondria (2 mg protein/ml) were incubated in KCl buffer supplemented with rotenone in a stirred 3 ml chamber thermostatted at 37° C. and shielded from ambient light. An electrode selective for the TPP cation was inserted and calibrated by five sequential 1 μM additions of MitoNAP (a) or MitoSNAP (b). Succinate (10 mM) was then added to energize the mitochondria, followed by the uncoupler FCCP (0.5 μM). Rapid uptake of MitoNAP by energized mitochondria was observed and this was reversed by abolishing the membrane potential with the uncoupler FCCP (a). Energised mitochondria also rapidly accumulated MitoSNAP (b). However, in contrast to MitoNAP, uncoupling apparently led to only partial release of the accumulated MitoSNAP (b). This apparent incomplete release of MitoSNAP on uncoupling is presumably because MitoSNAP is converted to MitoNAP within mitochondria and this generates a different response from the electrode.
Mitochondrial incubations were usually in KCl buffer (120 mM KCl, 10 mM HEPES, 1 mM EGTA, 100 μM N,N-bis(2-bis[carboxymethyl]aminoethyl) glycine (DTPA) and 10 μM neocuproine, pH 7.2) with 10 mM succinate and 4 μg/ml rotenone in the dark at 37° C., unless stated otherwise. An electrode selective for the TPP moiety of MitoSNAP and MitoNAP was made and used as described previously (Asin-Cayuela, J., Manas, A. R., James, A. M., Smith, R. A. & Murphy, M. P. Fine-tuning the hydrophobicity of a mitochondria-targeted antioxidant. FEBS Letts. 571, 9-16 (2004)). Respiration rates were measured in a Clark type O2 electrode (Rank Brothers, UK). To measure GSH and GSSG, mitochondria (1 mg protein/ml) were incubated with 0-10 μM MitoSNO1 or MitoNAP for 10 min, pelleted by centrifugation and the GSH and GSSG contents assessed by the recycling assay (Scarlett, J. L., Packer, M. A., Porteous, C. M. & Murphy, M. P. Alterations to glutathione and nicotinamide nucleotides during the mitochondrial permeability transition induced by peroxynitrite. Biochem. Pharmacol. 52, 1047-1055 (1996)). The measurement of exposed mitochondrial protein thiols is described below.
Rat liver mitochondria (1 mg protein/ml) in KCl buffer was incubated at 37° C. with 5 μM MitoSNO. 1 μM additions of MitoSNO were made sequentially before addition of 10 mM succinate. 200 nM FCCP was then added to uncouple the mitochondria. The concentrations of O2 and MitoSNO in solution were measured simultaneously using a Clark-type O2 electrode in combination with an ion-selective electrode for triphenylphosphonium cation (TPP^+). […] This can be seen in FIG. 3.
When succinate was added, the mitochondria started respiring and set up a Δψ, which caused a decrease in the MitoSNO concentration, as detected by the ion-selective electrode (FIG. 3). When the mitochondria were uncoupled by FCCP, a concomitant increase in the concentration of MitoSNO, or its derivatives, in the medium was detected by the ion-selective electrode. The amount of MitoSNO taken up into the mitochondria from the trace in FIG. 3 corresponds to ˜2.5 μM of the initial external concentration of 5 μM. Therefore 7.5 nmol MitoSNO have been taken up into 3 mg protein, and as the mitochondrial volume is ˜0.5 μl/mg protein (Brown, G. C. and Brand, M. D. Biochem J., 1985, 225, 399-405), the concentration of MitoSNO within mitochondria is ˜5 mM. This represents a 2000 fold concentration relative to the 2.5 μM present in the external medium, and is consistent with a Nernstian uptake of MitoSNO.

## CC(=O)NC(C(=O)NCCCCC[P+](c1ccccc1)(c1ccccc1)c1ccccc1)C(C)(C)SN=O.CS(=O)(=O)[O-] (stereo not shown) [MitoSNAP, [5-(2-acetylamino-3-methyl-3-nitrosothio-butyrylamino)-penty1]-triphenylphosphonium methanesulfonate]
  uptake by isolated mitochondria: significant Δψ-dependent uptake
